{
  "source": "patent US12661345B2",
  "about": "“Compositions for the treatment of hypertension” (The George Institute for Global Health, priority 2017, dated 2026)",
  "key": {"LDL": {"test_system": "LDL", "assay": "LDL laboratory test in the 3×3 factorial trial", "type": "in vivo, human", "settings": "Week 12 v/s Baseline", "protocol": "(§1) There was a 4 week screening period and another 4-week post study drug observational period.\n(§2) Group 2 received the low-dose BP lowering combination and simvastatin (i.e., telmisartan 20 mg+amlodipine 2.5 mg+simvastatin). Group 3 received the low-dose BP lowering combination and placebo (i.e., telmisartan 20 mg+amlodipine 2.5 mg+placebo). […] Group 9 received double placebo.\nChange in DBP and SBP • 2. Change in LDL Secondary Outcomes: • 1. Tolerability: • a. […] Difference between groups in participant withdrawals from treatment • 2. Safety: Percentage with any severe adverse event (SAE) • 3. Medication adherence: self-reported measures, pill counts BP Measurement:\nPotassium (K+), sodium (Na+), serum creatinine and LDL were measured at screening and at the 12-week end of treatment follow-up visit.\n(§3) All analyses of study outcomes were conducted according to the principle of intention-to-treat. The analyses of continuous outcomes such SBP and LDL-cholesterol at 12 weeks was performed using ANCOVA including the treatment arm and baseline values as a covariate. Additional analyses included interim measurements in a longitudinal model including treatment arm, visit, and treatment by visit interaction as well as the baseline measurement. Within-patient correlations were modelled using generalized estimating equations. A similar approach was applied to binary endpoints with log-binomial regression used in place of linear regression. There were also pre-defined subgroup analyses, baseline BP, baseline LDL, gender and age."}, "[1]": {"test_system": "participants with migraine", "assay": "Subject status / participant withdrawals by visit in the 3×3 factorial trial"}, "[2]": {"test_system": "participants with migraine", "assay": "Office blood pressure in 12-week double blind randomized 3×3 factorial trial", "type": "in vivo, human", "protocol": "as §1\nThere was a 4-week screening period and another 4-week post study drug observational period.\nas §2\nOffice BP was measured following the recommendations of the Australian National Heart Foundation. Participants were rested in the seated position for 5 minutes, an appropriate cuff size was selected and 3 measurements of BP were recorded using an Omron HEM907 monitor or equivalent validated automated digital BP monitor. Principles of automated office BP measurements were applied whereby the patient was left alone during BP recording.\nas §3"}, "[3]": {"settings": "Randomization (baseline, before treatment)"}, "[4]": {"settings": "Randomization, BP arm versus placebo, interval in brackets"}, "[5]": {"settings": "Week 4, BP arm versus placebo, interval in brackets"}},
  "data": [
    {"compound": "CC(C)NCC(O)COc1cccc2ccccc12", "note": "(centres unmarked) [Propranolol, propranolol]", "values": [
      {"measurement": "Change in LDL from baseline to 12 weeks Mean (SD)", "setting": "LDL", "result": "10 −0.9 (1.03) mmol/l"},
      {"measurement": "Change in LDL from baseline to 12 weeks Q1", "setting": "LDL", "result": -1.3, "unit": "mmol/L"},
      {"measurement": "Change in LDL from baseline to 12 weeks Q2", "setting": "LDL", "result": -0.7, "unit": "mmol/L"},
      {"measurement": "Change in LDL from baseline to 12 weeks Q3", "setting": "LDL", "result": -0.2, "unit": "mmol/L"},
      {"measurement": "Change in LDL from baseline to 12 weeks max", "setting": "LDL", "result": 0, "unit": "mmol/L"},
      {"measurement": "Change in LDL from baseline to 12 weeks min", "setting": "LDL", "result": -3, "unit": "mmol/L"},
      {"measurement": "Discontinuing: Deceased (percent)", "setting": "[1]; Week 4", "result": "(0.0%)"},
      {"measurement": "Discontinuing: Deceased (percent)", "setting": "[1]; Week 8", "result": "(0.0%)"},
      {"measurement": "Discontinuing: Deceased (percent)", "setting": "[1]; Week 12", "result": "(0.0%)"},
      {"measurement": "Diastolic Blood Pressure Mean (SD)", "setting": "[2]; [3]", "result": "10 85.1 (12.48) mmHg"},
      {"measurement": "Diastolic Blood Pressure Q1", "setting": "[2]; [3]", "result": 75.7, "unit": "mmHg"},
      {"measurement": "Diastolic Blood Pressure Q2", "setting": "[2]; [3]", "result": 77.7, "unit": "mmHg"},
      {"measurement": "Diastolic Blood Pressure Q3", "setting": "[2]; [3]", "result": 95.7, "unit": "mmHg"},
      {"measurement": "Diastolic Blood Pressure min", "setting": "[2]; [3]", "result": 73, "unit": "mmHg"},
      {"measurement": "Systolic Blood Pressure Mean (SD)", "setting": "[2]; [3]", "result": "10 130.4 (16.09) mmHg"},
      {"measurement": "Systolic Blood Pressure Q1", "setting": "[2]; [3]", "result": 116.7, "unit": "mmHg"},
      {"measurement": "Systolic Blood Pressure Q2", "setting": "[2]; [3]", "result": 129.3, "unit": "mmHg"},
      {"measurement": "Systolic Blood Pressure Q3", "setting": "[2]; [3]", "result": 146.3, "unit": "mmHg"},
      {"measurement": "Systolic Blood Pressure max", "setting": "[2]; [3]", "result": 153, "unit": "mmHg"},
      {"measurement": "Diastolic Blood Pressure Mean difference", "setting": "[2]; [4]", "result": "3.67 (−4.68, 12.02) mmHg"},
      {"measurement": "Systolic Blood Pressure Mean difference", "setting": "[2]; [4]", "result": "6.52 (−4.86, 17.91) mmHg"},
      {"measurement": "Diastolic Blood Pressure Mean (SD)", "setting": "[2]; Week 4", "result": "10 75.5 (9.75) mmHg"},
      {"measurement": "Diastolic Blood Pressure Q1", "setting": "[2]; Week 4", "result": 69.0, "unit": "mmHg"},
      {"measurement": "Diastolic Blood Pressure Q2", "setting": "[2]; Week 4", "result": 73.3, "unit": "mmHg"},
      {"measurement": "Diastolic Blood Pressure Q3", "setting": "[2]; Week 4", "result": 83.3, "unit": "mmHg"},
      {"measurement": "Diastolic Blood Pressure max", "setting": "[2]; Week 4", "result": 89, "unit": "mmHg"},
      {"measurement": "Diastolic Blood Pressure min", "setting": "[2]; Week 4", "result": 62, "unit": "mmHg"},
      {"measurement": "Diastolic Blood Pressure, Change from Baseline, Mean (SD)", "setting": "[2]; Week 4", "result": "10 −9.6 (5.66)"},
      {"measurement": "Diastolic Blood Pressure, Change from Baseline, Q1", "setting": "[2]; Week 4", "result": "−13.0"},
      {"measurement": "Diastolic Blood Pressure, Change from Baseline, Q2", "setting": "[2]; Week 4", "result": "−10.3"},
      {"measurement": "Diastolic Blood Pressure, Change from Baseline, Q3", "setting": "[2]; Week 4", "result": "−4.3"},
      {"measurement": "Diastolic Blood Pressure, Change from Baseline, max", "setting": "[2]; Week 4", "result": "−1"},
      {"measurement": "Diastolic Blood Pressure, Change from Baseline, min", "setting": "[2]; Week 4", "result": "−19"},
      {"measurement": "Systolic Blood Pressure Mean (SD)", "setting": "[2]; Week 4", "result": "10 121.3 (14.92) mmHg"},
      {"measurement": "Systolic Blood Pressure Q1", "setting": "[2]; Week 4", "result": 108.7, "unit": "mmHg"},
      {"measurement": "Systolic Blood Pressure Q2", "setting": "[2]; Week 4", "result": 116.8, "unit": "mmHg"},
      {"measurement": "Systolic Blood Pressure Q3", "setting": "[2]; Week 4", "result": 135.3, "unit": "mmHg"},
      {"measurement": "Systolic Blood Pressure max", "setting": "[2]; Week 4", "result": 146, "unit": "mmHg"},
      {"measurement": "Systolic Blood Pressure, Change from Baseline, Mean (SD)", "setting": "[2]; Week 4", "result": "10 −9.1 (5.63)"},
      {"measurement": "Systolic Blood Pressure, Change from Baseline, Q1", "setting": "[2]; Week 4", "result": "−13.3"},
      {"measurement": "Systolic Blood Pressure, Change from Baseline, Q2", "setting": "[2]; Week 4", "result": "−8.5"},
      {"measurement": "Systolic Blood Pressure, Change from Baseline, Q3", "setting": "[2]; Week 4", "result": "−5.0"},
      {"measurement": "Systolic Blood Pressure, Change from Baseline, max", "setting": "[2]; Week 4", "result": "−1"},
      {"measurement": "Systolic Blood Pressure, Change from Baseline, min", "setting": "[2]; Week 4", "result": "−18"},
      {"measurement": "Diastolic Blood Pressure Mean difference", "setting": "[2]; [5]", "result": "−3.53 (−11.29, 4.22) mmHg"},
      {"measurement": "Systolic Blood Pressure Mean difference", "setting": "[2]; [5]", "result": "−2.60 (−14.65, 9.45) mmHg"},
      {"measurement": "Diastolic Blood Pressure, Change from Baseline, Mean difference", "setting": "[2]; Week 4, interval in brackets", "result": "−7.53 (−13.19, −1.88)"},
      {"measurement": "Systolic Blood Pressure, Change from Baseline, Mean difference", "setting": "[2]; Week 4, interval in brackets", "result": "−9.23 (−17.31, −1.16)"},
      {"measurement": "Diastolic Blood Pressure Mean (SD)", "setting": "[2]; Week 8", "result": "10 75.0 (8.82) mmHg"},
      {"measurement": "Diastolic Blood Pressure Q1", "setting": "[2]; Week 8", "result": 66.3, "unit": "mmHg"},
      {"measurement": "Diastolic Blood Pressure Q2", "setting": "[2]; Week 8", "result": 76.5, "unit": "mmHg"},
      {"measurement": "Diastolic Blood Pressure Q3", "setting": "[2]; Week 8", "result": 83.3, "unit": "mmHg"},
      {"measurement": "Diastolic Blood Pressure max", "setting": "[2]; Week 8", "result": 85, "unit": "mmHg"},
      {"measurement": "Diastolic Blood Pressure min", "setting": "[2]; Week 8", "result": 61, "unit": "mmHg"},
      {"measurement": "Diastolic Blood Pressure, Change from Baseline, Mean (SD)", "setting": "[2]; Week 8", "result": "10 −10.1 (6.39)"},
      {"measurement": "Diastolic Blood Pressure, Change from Baseline, Q1", "setting": "[2]; Week 8", "result": "−12.7"},
      {"measurement": "Diastolic Blood Pressure, Change from Baseline, Q2", "setting": "[2]; Week 8", "result": "−10.8"},
      {"measurement": "Diastolic Blood Pressure, Change from Baseline, Q3", "setting": "[2]; Week 8", "result": "−7.0"},
      {"measurement": "Diastolic Blood Pressure, Change from Baseline, max", "setting": "[2]; Week 8", "result": 0},
      {"measurement": "Diastolic Blood Pressure, Change from Baseline, min", "setting": "[2]; Week 8", "result": "−22"},
      {"measurement": "Systolic Blood Pressure Mean (SD)", "setting": "[2]; Week 8", "result": "10 118.6 (12.56) mmHg"},
      {"measurement": "Systolic Blood Pressure Q1", "setting": "[2]; Week 8", "result": 112.3, "unit": "mmHg"},
      {"measurement": "Systolic Blood Pressure Q2", "setting": "[2]; Week 8", "result": 119.5, "unit": "mmHg"},
      {"measurement": "Systolic Blood Pressure Q3", "setting": "[2]; Week 8", "result": 127.0, "unit": "mmHg"},
      {"measurement": "Systolic Blood Pressure max", "setting": "[2]; Week 8", "result": 135, "unit": "mmHg"},
      {"measurement": "Systolic Blood Pressure min", "setting": "[2]; Week 8", "result": 95, "unit": "mmHg"},
      {"measurement": "Systolic Blood Pressure, Change from Baseline, Mean (SD)", "setting": "[2]; Week 8", "result": "10 −11.8 (11.44)"},
      {"measurement": "Systolic Blood Pressure, Change from Baseline, Q1", "setting": "[2]; Week 8", "result": "−18.0"},
      {"measurement": "Systolic Blood Pressure, Change from Baseline, Q2", "setting": "[2]; Week 8", "result": "−11.8"},
      {"measurement": "Systolic Blood Pressure, Change from Baseline, Q3", "setting": "[2]; Week 8", "result": "−4.3"},
      {"measurement": "Systolic Blood Pressure, Change from Baseline, max", "setting": "[2]; Week 8", "result": 6}
    ]}
  ]
}
